Paper PMC2919388, “A Screening Pipeline for Antiparasitic Agents Targeting Cryptosporidium Inosine Monophosphate Dehydrogenase” (PLoS Neglected Tropical Diseases, 2010)
Like-named read-outs stand apart in the source and are kept apart here.

Legend:
C. parvum [1] = conditions: several previous studies; read-out: reported EC50 values for C. parvum growth; cited from earlier work
HCT-8 cells = test: Fluorescent HCT-8 host cell growth assay; format: cell-based, human; conditions: for activity at 25 µM: Homo sapiens, HCT-8, compound at 25 μM, relative to DMSO alone; for inhibition of HCT-8 cell growth: at 12.5 µM and 25 µM
Experimental: HCT-8 cells were transfected with plasmid pmaxGFP (Amaxa) using Lipofectamine (Invitrogen). Fluorescent lines were then selected and cloned using cell sorting. Confluent monolayers of pmaxGFP expressing cells were harvested from T75 flasks and passed through a 40 µm cell strainer. Cells were seeded at 4000 cells per well into black, optical quality, thin bottom, 96-well plates. All test compounds were diluted in DMSO as described. The fluorescence was read daily with a SpectraMax M22/M2e (Molecular Devices) plate reader (Ex 485, Em 530) for 6–7 days. Percent inhibition was calculated on a day within the exponential phase of growth.

C. parvum [2] = test: High-content imaging C. parvum growth assay (FITC-VVL); format: cell-based, Cryptosporidium parvum; conditions: for EC50: Cryptosporidium parvum, HCT-8, 48 h, growth in HCT-8 cells, 48 hours
Experimental: The human ileocecal adenocarcinoma epithelial cell line, HCT-8, was used to support C. parvum infection in vitro. HCT-8 cells were maintained in RPMI-1640 (Hyclone) supplemented with 10% FBS, 1 mM sodium pyruvate, 50 U/m penicillin, 50 µg/ml streptomycin, and amphotericin B. Cryptosporidium parvum oocysts were a kind gift from either Dr. Mead (Emory University) or Dr. Kissinger (University of Georgia). HCT-8 cells (2×10^5) were seeded into black, optical quality, thin bottom, 96-well plates (DB Falcon) to achieve a 70% confluent monolayer on the day of infection. To facilitate oocyst excystation, a procedure described by Gut et al., was followed. Briefly, oocysts were washed twice with 1 ml of PBS (pH 7.2), incubated for 10 minutes at 37°C in 1 ml 10 mM of HCl and then incubated for a further 10 minutes in 0.2 ml of 200 µM sodium taurocholate at 15°C [40]. This oocyst suspension was diluted directly with DMEM (Hyclone) supplemented with 2% FBS, 50 U/ml penicillin, 50 µg/ml streptomycin, amphotericin B and 0.2 mM L-glutamine (infection medium) to inoculate host cell monolayers at 5×10^5 oocysts per well. Host cell monolayers were incubated for 3 hours at 37°C prior to removal of unexcysted oocysts by aspiration and PBS wash. Infection medium was then added to the monolayers and infection was allowed to progress for 48 hours.
The VVL IFA was performed in a 96-well format. Following 48 hours of culture C. parvum infected HCT-8 cells were washed with PBS and fixed with 0.2 ml/well of 3% paraformaldehyde/PBS, permeabilized with 0.25% Triton-X-100/PBS and blocked with 4% BSA/PBS. 0.1 ml of fluorescein (FITC)-conjugated VVL (Vector Labs 0.5 µg/ml) in 1% BSA/PBS was applied to wells and incubated for 45 minutes. The plates were washed twice with 200 µl/well of PBS. In the first wash DAPI was included at 0.1 µg/ml. Finally 200 µl/well of PBS was added to the plates prior to storage at 4°C protected from light.
Confocal images were acquired using a BD Biosciences Bioimager P435. The instrument was programmed to automatically change position and focus, capture montage images of 9–16, 40× fields per well, and then compress and save the image files. Object finding algorithms were developed for the recognition of FITC-VVL labelled C. parvum parasites and DAPI labelled host cell nuclei using Attovision Software (BD Biosciences). Briefly, to identify FITC-VVL labelled parasites, the object finding algorithm included, a flat field correction, a polygon shape setting, a 3×3 rolling ball filter, manual pixel intensity thresholding (100 min – 4095 max), and minimum and maximum object size cut-offs of 5 pixels and 350 pixels respectively. The algorithm optimised for finding DAPI labelled host cell nuclei also included flat field correction and polygon shape setting, but applied a 25×25 rolling ball filter which is more suitable for larger objects, an automated pixel intensity threshold, minimum and maximum object size cut-offs of 200 pixels and 4000 pixels respectively, and a watershed step with an erosion factor of 8 to aid in the separation of adjacent densely packed nuclei. Note that the intensity and area size cut off exclude detection of the much smaller parasite nuclei (the human genome is three hundred times larger than the C. parvum genome).
The object finding analysis steps described above recorded the number and area of objects per montage image. The output files along with a plate map file were then passed to an automated analysis pipeline (Pipeline Pilot Software, Accelrys) to calculate the mean number of parasites, the ratio of parasite number to host cell nuclei number, the mean area of parasites and host cell nuclei by well, and the percentage growth by treatment as compared to the no drug control. These analyses were exported in graphical format for each plate and the numerical values tabulated in html format. […]

CpIMPDH [3] = molecular target: T1, CpIMPDH (Cryptosporidium parvum, UniProt Q8T6T2); conditions: cited from earlier work
T1 sequence (Q8T6T2 whole entry): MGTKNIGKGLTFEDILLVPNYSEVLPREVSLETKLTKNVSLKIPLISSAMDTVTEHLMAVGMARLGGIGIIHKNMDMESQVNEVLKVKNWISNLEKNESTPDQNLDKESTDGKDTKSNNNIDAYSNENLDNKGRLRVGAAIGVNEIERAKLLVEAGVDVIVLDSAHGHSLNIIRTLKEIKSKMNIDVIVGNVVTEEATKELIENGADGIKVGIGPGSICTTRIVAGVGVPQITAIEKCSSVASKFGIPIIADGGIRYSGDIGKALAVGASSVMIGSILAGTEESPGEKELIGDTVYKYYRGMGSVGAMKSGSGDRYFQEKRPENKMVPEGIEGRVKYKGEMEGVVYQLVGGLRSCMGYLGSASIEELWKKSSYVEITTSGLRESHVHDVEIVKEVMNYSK

wild-type T. gondii = test: Fluorescent T. gondii growth assay, wild-type strain; format: cell-based, Toxoplasma gondii; conditions: wild-type T. gondii, no added xanthine, read-out: T. gondii model EC50 WT
From the text: (§1) Wild-type T. gondii and T. gondii-ΔHXGPRT parasites were transfected with plasmid ptubYFPYFsagCAT [37] which drives constitutive cytoplasmic expression of two copies of the yellow fluorescent protein. Similarly, plasmid pCTR2T [38] was transfected into T. gondii-CpIMPDH resulting in constitutive cytoplasmic expression of a tandem of the tomato variant of the red fluorescent protein [39]. Fluorescent parasites were selected and cloned by cell sorting using a MoFlo Legacy instrument (Beckman Coulter, Inc). Growth of fluorescent clones was monitored in 96 well plates as previously described. Briefly, fluorescence was read daily with a SpectraMax M22/M2e (Molecular Devices) plate reader (Ex 485, Em 530) for 6–7 days. For each of the three fluorescent T. gondii clones percent growth inhibition was calculated on a day within the exponential phase of growth for the purpose of determining an IC50 for each compound.
(§2) Supplementary file pntd.0000794.s002.tif: Figure S2 Obtaining an EC50 value for T. gondii growth. Fluorescent T. gondii parasites are seeded into 96-well plates and spiked with test compound. Fluorescence is measured daily with a SpectraMax M22/M2e (Molecular Devices) plate reader for 6–7 days. The fluorescence readings on a day during the exponential phase of the growth curve, for example day 4 in A, are used to calculated percent growth inhibition. These values are fitted using the 4 parameter model y = D+(A–D)/(1+(x/C)^B) where D is the minimum value, A is the maximum value, C is the EC50 and B is the Hill coefficient, using the SoftMax Pro v5 software, as illustrated in B. The absolute EC50 is recorded at the x intercept where y = 50. (0.33 MB TIF) Click here for additional data file.

T. gondii-ΔHXGPRT = test: Fluorescent T. gondii growth assay, ΔHXGPRT strain; format: cell-based; conditions: Toxoplasma gondii, read-out: T. gondii model EC50 ΔHXGPRT, T. gondii-ΔHXGPRT
From the text: as §1, §2

T. gondii-CpIMPDH = test: Fluorescent T. gondii growth assay, CpIMPDH reporter strain; format: cell-based, Toxoplasma gondii; conditions: for Selectivity = EC50(T. gondii-wild-type)/EC50(T. gondii-CpIMPDH): Figure 5 Sel; for EC50: Toxoplasma gondii, read-out: T. gondii model EC50 CpIMPDH, T. gondii-CpIMPDH, absence of xanthine
From the text: as §1
To facilitate screening of antiparasitic activity, we constructed a T. gondii reporter parasite that mirrors the Cryptosporidium purine metabolism. Figure 1 summarizes the main differences between the two parasites in this pathway. We started with a T. gondii knockout mutant that, like C. parvum, lacks the ability to salvage xanthine and guanine via HXGPRT (T. gondii-ΔHXGPRT [41]) and introduced the CpIMPDH gene under the control of a T. gondii promoter. Next the native T. gondii IMPDH gene was disrupted by replacing the entire coding sequence with a chloramphenicol acetyl transferase cassette using a new cosmid-based gene targeting approach. […] This manipulation created strain T. gondii-CpIMPDH-ΔHXGPRT-ΔTgIMPDH. Lastly, we introduced a fluorescent protein cassette and isolated stable transgenic parasites by cell sorting. The resulting strain is referred to as T. gondii-CpIMPDH. […] We similarly engineered fluorescent versions of wild-type T. gondii and T. gondii-ΔHXGPRT to serve as controls.
as §2

CpIMPDH [4] = molecular target: T1, CpIMPDH; test: CpIMPDH enzyme inhibition (without or with BSA); format: biochemical; conditions: compound not previously described
Experimental: We wondered if some compounds might be binding nonspecifically to other proteins. To test this hypothesis, CpIMPDH inhibition was also evaluated in the presence of BSA [22]. […] Selectivity in the T. gondii model also correlates well with the potency of enzyme inhibition in the presence of BSA (Figure 7C; r = −0.92, p<0.0001). These observations indicate that the IC50 value in the presence of BSA is a useful proxy for antiparasitic activity modelled by T. gondii-CpIMPDH proliferation.

[5] = read-out: CpIMPDH Inhibition IC50 + BSA

Row | Compound | EC50 (C. parvum [1]) [µM] | effect on host cell (HCT-8) growth (HCT-8 cells; in words) | EC50 (C. parvum [2]) [µM] | mean parasite area (C. parvum [2]; relative to DMSO alone) | parasites observed relative to the no drug control (C. parvum [2]; very high concentrations of paromomycin) [%] | IC50 (CpIMPDH [3]; [5]) [µM] | EC50 (wild-type T. gondii; Toxoplasma gondii) [µM] | EC50 (wild-type T. gondii) [µM] | EC50 (T. gondii-ΔHXGPRT) [µM] | activity at 25 µM (HCT-8 cells) [%] | inhibition of HCT-8 cell growth (HCT-8 cells) | selectivity for the T. gondii-CpIMPDH parasite over wild-type T. gondii (T. gondii-CpIMPDH) [fold] | Selectivity = EC50(T. gondii-wild-type)/EC50(T. gondii-CpIMPDH) (T. gondii-CpIMPDH) | EC50 (T. gondii-CpIMPDH) [µM] | IC50 (CpIMPDH [4]; in the presence of BSA) [µM] | IC50 (CpIMPDH [4]; without BSA) [µM] | IC50 (CpIMPDH [3]; in the presence of BSA, values marked c, read-out: CpIMPDH Inhibition IC50 + BSA) [µM] | IC50 (CpIMPDH [3]; without BSA, values marked c, read-out: CpIMPDH Inhibition IC50 - BSA) [µM] | IC50 (CpIMPDH [3]; read-out: CpIMPDH Inhibition IC50 - BSA) [µM]
1 | NC[C@@H]1O[C@H](O[C@H]2[C@@H](O)[C@H](O[C@@H]3[C@@H](O)[C@H](N)C[C@H](N)[C@H]3O[C@H]3O[C@H](CO)[C@@H](O)[C@H](O)[C@H]3N)O[C@@H]2CO)[C@H](N)[C@@H](O)[C@@H]1O [paromomycin, reference compound] | 65 to 130 | negligible effects on the growth of these cells | 97 | significantly reduce the mean parasite area in a dose responsive manner | ~30 |  |  |  |  |  |  |  |  |  |  |  |  |  | 
2 | CC(Oc1cccc2c1ccc[n+]2[O-])c1cn(-c2ccc(Cl)cc2)nn1 (stereo not shown) [Compound A102] |  |  | 12 to 25 |  |  | 0.06 ± 0.02 | 23 ± 3 | ≥ 20 | 20 ± 5 | 62 | inhibit HCT-8 cell growth significantly | ≥ 36 | 76 | 0.3 ± 0.1 |  |  |  |  | 
3 | C[C@@H](Oc1cccc2c1ccc[n+]2[O-])c1cn(-c2ccc(Cl)cc2)nn1 [Compound A109] |  |  | 12 to 25 |  |  | 0.05 ± 0.01 | > 25 |  | > 25 | 89 ± 16 |  | ≥ 36 | > 86 | 0.3 ± 0.1 |  |  |  |  | 
4 | CC(Oc1cccc2ncccc12)c1cn(-c2ccc(Cl)cc2)nn1 (stereo not shown) [Compound A99] |  |  | 12 to 25 |  |  |  | 4.7 |  | 3.4 | 58 ± 8 |  | ≥ 17 | > 17 | < 0.2 | 0.076 ± 0.009 | 0.031 ± 0.001 |  |  | 
5 | C[C@@H](Oc1cncc2ccccc12)c1cn(-c2ccc(Cl)cc2)nn1 [Compound A98] |  |  | 3 to 6 |  |  |  | 2.8 ± 0.1 |  | 2.3 ± 0.6 | 65 ± 7 |  |  | > 12 | < 0.2 |  |  | 0.03 ± 0.001 | 0.009 ± 0.001 | 
6 | CC(Oc1cc[n+]([O-])c2ccccc12)c1cn(-c2ccc(Cl)cc2)nn1 (stereo not shown) [Compound A100] |  |  | 12 to 25 |  |  |  | > 25 | ≥ 20 | ≥ 25 | 44 ± 10 | inhibit HCT-8 cell growth significantly | ≥ 36 |  | 0.5 |  |  |  |  | 0.03 ± 0.01
